Results published in patent US20100028889A1, “COMPANION DIAGNOSTIC ASSAYS FOR CANCER THERAPY” (ABBOTT LABORATORIES, priority 2006, published 2010).

Key:
Assay in all cases: sensitivity of leukemia/lymphoma cell line, 5 uM cut-off
Format in all cases: cell-based
MV-4-11 = conditions: Homo sapiens, MV4-11, read-out: sensitivity class by EC50
Experimental: (§1) The following SCLC cell lines were obtained from ATCC (Manassis, Va.): NCI-H889, NCI-H1963, NCI-H1417, NCI-H146, NCI-H187, DMS53, NCI-H510, NCI-H209, NCI-H211, NCI-H345, NCI-H524, NCI-H69, DMS79, SHP77, NCI-H1688, NCI-H446, NCI-H740, NCI-H1048, NCI-H82, NCI-H196, SW1271, H69AR, NCI-H526, NCI-H865, NCI-H748, NCI-H711, and DMS114. All cells were cultured in the ATCC recommended media at 37° C. in a humidified atmosphere containing 5% CO2. The following leukemia and lymphoma cell lines were obtained from ATCC (Manassis, Va.): MV-4-11, RS4;11, Loucy, KG-1A, DOHH2, Rs11380, CCRF-HSB-2, CCRF-CEM, CEM/C1, Reh, SUP-B15, MOLT-4, SUDHL4, HL-60, RPMI 8226, A3, Daudi, WSU-NHL, Pfeiffer, Jurkat I 9.2, Jurkat, MEG-01, U-937, K-562, and Raji.
(§2) The 25 leukemia/lymphoma cell lines were also tested for sensitivity to ABT-737 using the 5 uM cut-off, and sensitive cell lines were MV-4-11, RS4;11, Loucy, KG-1A, DOHH2, Rs11380, CCRF-HSB-2, CCRF-CEM, CEM/C1, Reh, SUP-B15, MOLT-4, SUDHL4, HL-60, RPMI 8226, A3, Daudi, WSU-NHL, Pfeiffer, and Jurkat I 9.2, and the resistant cell lines Jurkat, MEG-01, U-937, K-562, and Raji.
(§3) The 25 leukemia/lymphoma cell lines were also tested for sensitivity to ABT-263 using the 5 uM cut-off, and sensitive cell lines were MV-4-11, RS4;11, Loucy, KG-1A, DOHH2, Rs11380, CCRF-HSB-2, CCRF-CEM, CEM/C1, Reh, SUP-B15, MOLT-4, SUDHL4, HL-60, RPMI 8226, A3, Daudi, WSU-NHL, Pfeiffer, and Jurkat I 9.2, and the resistant cell lines Jurkat, MEG-01, U-937, K-562, and Raji.

SUDHL4 = conditions: Homo sapiens, SU-DHL-4, read-out: sensitivity class by EC50
Experimental: as §1, §2, §3

KG-1A = conditions: Homo sapiens, read-out: sensitivity class by EC50
Experimental: as §1, §2, §3

CCRF-HSB-2 = conditions: Homo sapiens, read-out: sensitivity class by EC50
Experimental: as §1, §2, §3

WSU-NHL = conditions: Homo sapiens, read-out: sensitivity class by EC50
Experimental: as §1, §2, §3

CCRF-CEM = conditions: Homo sapiens, read-out: sensitivity class by EC50
Experimental: as §1, §2, §3

MOLT-4 = conditions: Homo sapiens, read-out: sensitivity class by EC50
Experimental: as §1, §2, §3

RPMI 8226 = conditions: Homo sapiens, read-out: sensitivity class by EC50
Experimental: as §1, §2, §3

Raji = conditions: Homo sapiens, read-out: sensitivity class by EC50
Experimental: as §1, §2, §3

A3 = conditions: Homo sapiens, read-out: sensitivity class by EC50
Experimental: as §1, §2, §3

Daudi = conditions: Homo sapiens, read-out: sensitivity class by EC50
Experimental: as §1, §2, §3

HL-60 = conditions: Homo sapiens, read-out: sensitivity class by EC50
Experimental: as §1, §2, §3

Rs11380 = conditions: Homo sapiens, read-out: sensitivity class by EC50
Experimental: as §1, §2, §3

Pfeiffer = conditions: Homo sapiens, read-out: sensitivity class by EC50
Experimental: as §1, §2, §3

Loucy = conditions: Homo sapiens, read-out: sensitivity class by EC50
Experimental: as §1, §2, §3

MEG-01 = conditions: Homo sapiens, read-out: sensitivity class by EC50
Experimental: as §1, §2, §3

DOHH2 = conditions: Homo sapiens, DOHH-2, read-out: sensitivity class by EC50
Experimental: as §1, §2, §3

CEM/C1 = conditions: Homo sapiens, read-out: sensitivity class by EC50
Experimental: as §1, §2, §3

SUP-B15 = conditions: Homo sapiens, read-out: sensitivity class by EC50
Experimental: as §1, §2, §3

U-937 = conditions: Homo sapiens, read-out: sensitivity class by EC50
Experimental: as §1, §2, §3

Reh = conditions: Homo sapiens, read-out: sensitivity class by EC50
Experimental: as §1, §2, §3

Jurkat = conditions: Homo sapiens, read-out: sensitivity class by EC50
Experimental: as §1, §2, §3

K-562 = conditions: Homo sapiens, K562, read-out: sensitivity class by EC50
Experimental: as §1, §2, §3

RS4;11 = conditions: Homo sapiens, read-out: sensitivity class by EC50
Experimental: as §1, §2, §3

Jurkat I 9.2 = conditions: Homo sapiens, read-out: sensitivity class by EC50
Experimental: as §1, §2, §3

Row | Structure (SMILES) | EC50 (MV-4-11) [µM] | EC50 (SUDHL4) [µM] | EC50 (KG-1A) [µM] | EC50 (CCRF-HSB-2) [µM] | EC50 (WSU-NHL) [µM] | EC50 (CCRF-CEM) [µM] | EC50 (MOLT-4) [µM] | EC50 (RPMI 8226) [µM] | EC50 (Raji) [µM] | EC50 (A3) [µM] | EC50 (Daudi) [µM] | EC50 (HL-60) [µM] | EC50 (Rs11380) [µM] | EC50 (Pfeiffer) [µM] | EC50 (Loucy) [µM] | EC50 (MEG-01) [µM] | EC50 (DOHH2) [µM] | EC50 (CEM/C1) [µM] | EC50 (SUP-B15) [µM] | EC50 (U-937) [µM] | also measured
1 | CC1(C)CCC(c2ccc(Cl)cc2)=C(CN2CCN(c3ccc(C(=O)NS(=O)(=O)c4ccc(N[C@H](CCN5CCOCC5)CSc5ccccc5)c(S(=O)(=O)C(F)(F)F)c4)cc3)CC2)C1 [ABT-263, N-(4-(4-((2-(4-chlorophenyl)-5,5-dimethyl-1-cyclohex-1-en-1-yl)methyl)piperazin-1-yl)benzoyl)-4-(((1R)-3-(morpholin-4-yl)-1-((phenylsulfanyl)methyl)propyl)amino)-3-((trifluoromethyl)sulfonyl)benzenesulfonamide] | < 5 | < 5 | < 5 | < 5 | < 5 | < 5 | < 5 | < 5 | > 5 | < 5 | < 5 | < 5 | < 5 | < 5 | < 5 | > 5 | < 5 | < 5 | < 5 | > 5 | EC50 (Reh): < 5 µM; EC50 (Jurkat): > 5 µM; EC50 (K-562): > 5 µM; EC50 (RS4;11): < 5 µM; EC50 (Jurkat I 9.2): < 5 µM
2 | CN(C)CC[C@H](CSc1ccccc1)Nc1ccc(S(=O)(=O)NC(=O)c2ccc(N3CCN(Cc4ccccc4-c4ccc(Cl)cc4)CC3)cc2)cc1[N+](=O)[O-] [ABT-737, N-(4-(4-((4′-chloro(1,1′-biphenyl)-2-yl)methyl)piperazin-1-yl)benzoyl)-4-(((1R)-3-(dimethylamino)-1-((phenylsulfanyl)methyl)propyl)amino)-3-nitrobenzenesulfonamide] | < 5 | < 5 | < 5 | < 5 | < 5 | < 5 | < 5 | < 5 | > 5 | < 5 | < 5 | < 5 | < 5 | < 5 | < 5 | > 5 | < 5 | < 5 | < 5 | > 5 | EC50 (Reh): < 5 µM; EC50 (Jurkat): > 5 µM; EC50 (K-562): > 5 µM; EC50 (RS4;11): < 5 µM; EC50 (Jurkat I 9.2): < 5 µM
